According to patent US7842691B2, “Method for the treatment of myelodysplastic syndromes using cyclopropanecarboxylic acid {2-[1-(3-ethoxy-4-methoxy-phenyl)-2-methanesulfonyl-ethyl]-3-OXO-2,3-dihydro-1 H-isoindol-4-yl}-amide” (Celgene Corporation, priority 2003, dated 2010):

Assays:
[1] = tested on: production of various cytokines; experiment: In vitro pharmacology studies, effects on production of various cytokines, activity comparison with thalidomide; assay type: cell-based, human
Procedure: The pharmacological properties of 3-(3,4-dimethoxy-phenyl)-3-(1-oxo-1,3-dihydro-isoindol-2-yl)-propionamide, including activity comparisons with thalidomide, are characterized in in vitro studies. Studies examine the effects of 3-(3,4-dimethoxy-phenyl)-3-(1-oxo-1,3-dihydro-isoindol-2-yl)-propionamide on the production of various cytokines. In addition, a safety pharmacology study of -(3,4-dimethoxy-phenyl)-3-(1-oxo-1,3-dihydro-isoindol-2-yl)-propionamide is conducted in dogs and the effects of the compound on ECG parameters are examined further as part of three repeat-dose toxicity studies in primates.
Inhibition of TNF-α production following LPS-stimulation of human PBMC and human whole blood by 3-(3,4-dimethoxy-phenyl)-3-(1-oxo-1,3-dihydro-isoindol-2-yl)-propionamide is investigated in vitro (Muller et al., Bioorg. Med. Chem. Lett. 9:1625-1630, 1999). The IC50's of 3-(3,4-dimethoxy-phenyl)-3-(1-oxo-1,3-dihydro-isoindol-2-yl)-propionamide for inhibiting production of TNF-α following LPS-stimulation of PBMC and human whole blood is measured.
(§1) The pharmacological effects of 3-(3,4-dimethoxy-phenyl)-3-(1-oxo-1,3-dihydro-isoindol-2-yl)-propionamide derive from its action as an inhibitor of cellular response to receptor-initiated trophic signals (e.g., IGF-1, VEGF, cyclooxygenase-2), and other activities.

AML cells = experiment: Mitogenic response to VEGF in AML cells (ligand-induced Akt-phosphorylation); assay type: cell-based; conditions: by extinguishing ligand-induced Akt-phosphorylation
Text: as §1

[2] = tested on: MDS bone marrow progenitor formation; experiment: MDS vs normal bone marrow progenitor formation in pre-clinical models; assay type: cell-based
Text: as §1

MDS patients = conditions: cited from earlier work; for granulocytopoiesis in treated patients / improvement in hemoglobin or platelet counts: clinical trials of MDS patients

Question: For `COc1ccc(C(CC(N)=O)N2Cc3ccccc3C2=O)cc1OC` (centres unmarked) [3-(3,4-dimethoxy-phenyl)-3-(1-oxo-1,3-dihydro-isoindol-2-yl)-propionamide], which “generation of inflammatory cytokines” value [1] is on record?
Answer: The value was “suppresses the generation of inflammatory cytokines”.

Question: And the “mitogenic response to VEGF” value (AML cells)?
Answer: The value was “abrogates mitogenic response to VEGF in AML cells”.

Question: What about the “MDS vs normal bone marrow progenitor formation” value [2] of the same molecule?
Answer: Its value is “selectively suppresses MDS vs normal bone marrow progenitor formation”.

Question: With erythropoietin [recombinant human EPO] as the molecule, how does the “patients with sustained improvement in hemoglobin or decrease in transfusion requirement” value (MDS patients; MDS patients treated with recombinant human EPO) read?
Answer: Its value is “less than 25 % of patients”.

Question: What does the source list for “granulocyte macrophage colony stimulating factor [GM-CSF]”?
Answer: granulocytopoiesis in treated patients (MDS patients): can restore granulocytopoiesis; improvement in hemoglobin or platelet counts (MDS patients): little or no improvement

B1: granulocyte colony stimulating factor (protein, UniProt P09919 31-207, looked up)
Granulocyte …: TPLGPASSLPQSFLLKCLEQVRKIQGDGAALQEKLVSECATYKLCHPEELVLLGHSLGIPWAPLSSCPSQALQLAGCLSQLHSGLFLYQGLLQALEGISPELGPTLDTLQLDVADFATTIWQQMEELGMAPALQPTQGAMPAFASAFQRRAGGVLVASHLQSFLEVSYRVLRHLAQP
notes: granulocyte colony stimulating factor, recombinant human
Question: For B1, which “granulocytopoiesis in treated patients” value (MDS patients) is on record?
Answer: Its value is “can restore granulocytopoiesis”.

Question: What about the “improvement in hemoglobin or platelet counts” value (MDS patients) of the same molecule?
Answer: The value was “little or no improvement”.
